Data on one molecule can be found in paper PMC7466159, “Anti-Metastasis Fascin Inhibitors Decrease the Growth of Specific Subtypes of Cancers” (Cancers, 2020).

The test system of assay [1] is MDA-MB-468 triple-negative breast cancer cells. Briefly: Cell growth assay, MDA-MB-468. The class given is cell-based. Particulars: MDA-MB-468 cells in culture, 10% serum.
Assay [2] relates to BT-20 triple-negative breast cancer cells. The assay is described as follows: Cell growth assay, BT-20. The class given is cell-based. Particulars: BT-20 cells in culture, 10% serum.
The test system of assay [3] is HCC38 triple-negative breast cancer cells. Briefly: Cell growth assay, HCC38. Particulars: HCC38 cells in culture, 10% serum. The class given is cell-based.
In a further assay the test system is MDA-MB-468 tumor cells. The assay is described as follows: MDA-MB-468 breast cancer model in NSG mice (tumor growth, overall survival). The class given is in vivo. The settings on record: treatment from Day 14, compared with the control group. The protocol:
MDA-MB-468 cells and HCC38 cells grew in the presence of EGF with or without NP-G2-044. […] Finally, we used the animal model to investigate whether the primary tumor growth of MDA-MB-468 cells was sensitive to fascin inhibitors. MDA-MB-468 tumor cells were implanted into the mammary gland of NSG mice, and these mice were randomly divided into four groups. One group of mice was used as control (Figure 6I). The second group of mice was treated with the fascin inhibitor NP-G2-044 (Figure 6I). The third group was treated with the EGFR inhibitor gefitnib (Figure 6I), and the fourth group was treated with the combination of NP-G2-044 + gefitinib (Figure 6I). […] We dissected the primary tumor tissues 55 days after the tumor implantation from some mice. […] Furthermore, the overall survival of the mice was analyzed (Figure 6K).
For the breast cancer model, MDA-MB-468 cells (5 × 10^6) suspended in PBS-matrigel (v/v, 1:1) were injected subcutaneously into the abdominal mammary gland area of female NSG mice on Day 0 as previously described. Starting on Day 14, NP-G2-044 was given once a day for 5 days every week by gavage at 300 mg kg^−1 per mouse until their death. Starting on Day 14, gefitinib was given twice weekly by gavage at 150 mg kg^−1 per mouse until their death. The control solvent was given once a day for 5 days every week by gavage according to their body weight until their death. […] The primary tumor volume was calculated as length × width^2 ×π/6.

For the molecule `COc1cc2ncnc(Nc3ccc(F)c(Cl)c3)c2cc1OCCCN1CCOCC1` [gefitinib, reference compound], the growth sensitivity result in assay [1], in assay [2] and in assay [3] was “sensitive” each time. Moreover, the “growth of primary tumors” value in the assay on MDA-MB-468 tumor cells is “reduced the growth of primary tumors to the same degree”. The “increase of median overall survival” value in the assay on MDA-MB-468 tumor cells is ~ 50%.
